Several values for one entry are separate records, joined by “and”; a condition that tells them apart may be missing. Equal values may be shown once. One block for each compound: values may come before it.
Test system: 755483-174-R-J1-PDC complex spheroid growth, percent test/control
Test: Anticancer human tumor 755483-174-R-J1-PDC patient-derived rhabdomyosarcoma cell line growth inhibition [Asc]
Conditions: for viability, T/C: stronger effect = lower value
Method in brief: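 Stromal components (HUVEC and hMSC) are co-assembled with the cancer cells into multicellular spheroids. Drugs are then added singly or paired, at concentrations falling by half-log increments from a clinically achievable maximum, capped at 10 microM without known Cmax.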

[1] = curve of first compound, second compound 0.1 µM
[2] = curve of first compound, second compound 0.316 µM
[3] = curve of first compound, second compound 1 µM
[4] = second compound 0.1 µM, first compound 0.0316 µM
[5] = second compound 0.1 µM, first compound 0.1 µM
[6] = second compound 0.316 µM, first compound 0.0316 µM
[7] = second compound 0.316 µM, first compound 0.1 µM
[8] = second compound 1 µM, first compound 0.0316 µM
[9] = second compound 1 µM, first compound 0.1 µM
[10] = curve of first compound, second compound 3.16 µM
[11] = curve of first compound, second compound 10 µM
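Also: spheroids exposed to compounds for seven days before readout.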

SMILES: Cc1c(S(C)(=O)=O)c(-c2cc(F)cc(N3CCN(c4ccc(NS(=O)(=O)c5ccc(NC(CCN6CCC(C(=O)OCCCP(=O)(O)O)CC6)CSc6ccccc6)c(S(=O)(=O)C(F)(F)F)c5)cc4)CC3)c2)c(-c2ccc(Cl)cc2)n1C(C)C (configuration not stated)
viability, T/C (compound 10 µM): 41.7% [middle of 14 runs]

SMILES: NC(=O)C(=Cn1cnc(-c2cc(C(F)(F)F)cc(C(F)(F)F)c2)n1)c1cncnc1
viability, T/C (compound 0.000949 µM): 83.4% and 72.6% and 109% | viability, T/C (compound 0.003 µM): 79.3% and 74.5% and 76.7% | viability, T/C (compound 0.00949 µM): 31.9% and 25.1% and 35.4% | viability, T/C (compound 0.03 µM): 12.6% and 12.7% and 19.2% | viability, T/C (compound 0.0949 µM): 8.9% and 7.51% and 9.5% | viability, T/C (compound 0.3 µM): 9.16% and 4.1% and 26.1% | IC50 (curve of compound): 6.11 nM and 5.25 nM and 6.23 nM

SMILES: Cc1nc(N2CCC3(CC2)COC(C)C3N)c(CO)nc1Sc1ccnc(N)c1Cl (configuration not stated)
viability, T/C (compound 0.00949 µM): 92.6% and 79% and 106% | viability, T/C (compound 0.03 µM): 82.3% and 110% and 95.9% | viability, T/C (compound 0.0949 µM): 82.2% and 74.3% and 36.2% | viability, T/C (compound 0.3 µM): 47.3% and 50.9% and 53.9% | viability, T/C (compound 0.949 µM): 31.6% and 34.4% and 28.9% | viability, T/C (compound 3 µM): 22.1% and 20.2% and 18.8% | IC50 (curve of compound): 291 nM and 325 nM and 73 nM

Continued, in another order:

IC50 (curve of compound): 32.7 nM and 18.1 nM and 6.39 nM
SMILES: Cn1ncnc1[C@H]1c2n[nH]c(=O)c3cc(F)cc(c23)N[C@@H]1c1ccc(F)cc1
viability, T/C (compound 0.000316 µM): 88.4% and 89% and 81.2% | viability, T/C (compound 0.001 µM): 83.4% and 79.9% and 66.1% | viability, T/C (compound 0.00316 µM): 84.2% and 86.5% and 53.9% | viability, T/C (compound 0.01 µM): 74.4% and 58.5% and 52.2% | viability, T/C (compound 0.0316 µM): 50.1% and 45.9% and 31.2% | viability, T/C (compound 0.1 µM): 41.2% and 38.3% and 23.1%

IC50 (curve of first compound, second compound 0.01 µM): 585 nM | IC50 (curve of first compound, second compound 0.0316 µM): 336 nM | IC50 [1]: 428 nM | IC50 [2]: < 31.6 nM | IC50 [3]: < 31.6 nM
SMILES: C=C(F)C(=O)N1CCN(c2nc(OCC3CCCN3C)nc3c2CCN(c2cccc4cccc(Cl)c24)C3)CC1CC#N (configuration not stated) + CNC(C)C(=O)NC1CN(S(=O)(=O)c2cccc(S(=O)(=O)N3CCC4CCC(C(=O)NC(c5ccccc5)c5ccccc5)N4C(=O)C(NC(=O)C(C)NC)C3)c2)CCC2CCC(C(=O)NC(c3ccccc3)c3ccccc3)N2C1=O
viability, T/C (second compound 0.01 µM, first compound 0.0316 µM): 68.4% | viability, T/C (second compound 0.01 µM, first compound 0.1 µM): 62% | viability, T/C (second compound 0.01 µM, first compound 0.316 µM): 58.9% | viability, T/C (second compound 0.01 µM, first compound 1 µM): 40.6% | viability, T/C (second compound 0.01 µM, first compound 3.16 µM): 3.47% | viability, T/C (second compound 0.01 µM, first compound 10 µM): 0.12% | viability, T/C (second compound 0.0316 µM, first compound 0.0316 µM): 48.5% | viability, T/C (second compound 0.0316 µM, first compound 0.1 µM): 56.7% | viability, T/C (second compound 0.0316 µM, first compound 0.316 µM): 50.1% | viability, T/C (second compound 0.0316 µM, first compound 1 µM): 32% | viability, T/C (second compound 0.0316 µM, first compound 3.16 µM): 2.46% | viability, T/C (second compound 0.0316 µM, first compound 10 µM): 0.12% | viability, T/C [4]: 40% | viability, T/C [5]: 63.9% | viability, T/C (second compound 0.1 µM, first compound 0.316 µM): 66.2% | viability, T/C (second compound 0.1 µM, first compound 1 µM): 31.1% | viability, T/C (second compound 0.1 µM, first compound 3.16 µM): 17.1% | viability, T/C (second compound 0.1 µM, first compound 10 µM): 0.12% | viability, T/C [6]: 26.6% | viability, T/C [7]: 30.6% | viability, T/C (second compound 0.316 µM, first compound 0.316 µM): 38.7% | viability, T/C (second compound 0.316 µM, first compound 1 µM): 23.3% | viability, T/C (second compound 0.316 µM, first compound 3.16 µM): 2.01% | viability, T/C (second compound 0.316 µM, first compound 10 µM): 0.12% | viability, T/C [8]: 29.7% | viability, T/C [9]: 34.6% | viability, T/C (second compound 1 µM, first compound 0.316 µM): 21.6% | viability, T/C (second compound 1 µM, first compound 1 µM): 13.1% | viability, T/C (second compound 1 µM, first compound 3.16 µM): 0.83% | viability, T/C (second compound 1 µM, first compound 10 µM): 0.19%

IC50 [1]: 1.85 nM | IC50 [2]: < 0.316 nM | IC50 [3]: < 0.316 nM | IC50 [10]: < 0.316 nM | IC50 [11]: < 0.316 nM
SMILES: Cn1ncnc1[C@H]1c2n[nH]c(=O)c3cc(F)cc(c23)N[C@@H]1c1ccc(F)cc1 + Cc1c(S(C)(=O)=O)c(-c2cc(F)cc(N3CCN(c4ccc(NS(=O)(=O)c5ccc(NC(CCN6CCC(C(=O)OCCCP(=O)(O)O)CC6)CSc6ccccc6)c(S(=O)(=O)C(F)(F)F)c5)cc4)CC3)c2)c(-c2ccc(Cl)cc2)n1C(C)C
viability, T/C (second compound 0.1 µM, first compound 0.000316 µM): 50.8% | viability, T/C (second compound 0.1 µM, first compound 0.001 µM): 50.7% | viability, T/C (second compound 0.1 µM, first compound 0.00316 µM): 49.3% | viability, T/C (second compound 0.1 µM, first compound 0.01 µM): 30.7% | viability, T/C [4]: 28.1% | viability, T/C [5]: 35% | viability, T/C (second compound 0.316 µM, first compound 0.000316 µM): 46.2% | viability, T/C (second compound 0.316 µM, first compound 0.001 µM): 41% | viability, T/C (second compound 0.316 µM, first compound 0.00316 µM): 34.7% | viability, T/C (second compound 0.316 µM, first compound 0.01 µM): 38.1% | viability, T/C [6]: 25% | viability, T/C [7]: 30.3% | viability, T/C (second compound 1 µM, first compound 0.000316 µM): 38.2% | viability, T/C (second compound 1 µM, first compound 0.001 µM): 32.1% | viability, T/C (second compound 1 µM, first compound 0.00316 µM): 35% | viability, T/C (second compound 1 µM, first compound 0.01 µM): 34% | viability, T/C [8]: 23.7% | viability, T/C [9]: 21.6% | viability, T/C (second compound 3.16 µM, first compound 0.000316 µM): 38% | viability, T/C (second compound 3.16 µM, first compound 0.001 µM): 39.3% | viability, T/C (second compound 3.16 µM, first compound 0.00316 µM): 24.7% | viability, T/C (second compound 3.16 µM, first compound 0.01 µM): 18.6% | viability, T/C (second compound 3.16 µM, first compound 0.0316 µM): 19.2% | viability, T/C (second compound 3.16 µM, first compound 0.1 µM): 18.8% | viability, T/C (second compound 10 µM, first compound 0.000316 µM): 32.6% | viability, T/C (second compound 10 µM, first compound 0.001 µM): 39.4% | viability, T/C (second compound 10 µM, first compound 0.00316 µM): 32.9% | viability, T/C (second compound 10 µM, first compound 0.01 µM): 29.5% | viability, T/C (second compound 10 µM, first compound 0.0316 µM): 16.7% | viability, T/C (second compound 10 µM, first compound 0.1 µM): 15.7%

IC50 [1]: 1740 nM | IC50 [2]: < 9.49 nM | IC50 [3]: < 9.49 nM | IC50 [10]: < 9.49 nM | IC50 [11]: 26.8 nM
SMILES: CCN1C(C(=O)NC23CCC(C(=O)O)(CC2)CC3)C(c2cccc(Cl)c2F)C2(C(=O)Nc3cc(Cl)ccc32)C12CCCCC2 (configuration not stated) + Cc1c(S(C)(=O)=O)c(-c2cc(F)cc(N3CCN(c4ccc(NS(=O)(=O)c5ccc(NC(CCN6CCC(C(=O)OCCCP(=O)(O)O)CC6)CSc6ccccc6)c(S(=O)(=O)C(F)(F)F)c5)cc4)CC3)c2)c(-c2ccc(Cl)cc2)n1C(C)C
viability, T/C (second compound 0.1 µM, first compound 0.00949 µM): 68.7% | viability, T/C (second compound 0.1 µM, first compound 0.03 µM): 60.5% | viability, T/C (second compound 0.1 µM, first compound 0.0949 µM): 57.5% | viability, T/C (second compound 0.1 µM, first compound 0.3 µM): 61.4% | viability, T/C (second compound 0.1 µM, first compound 0.949 µM): 65.5% | viability, T/C (second compound 0.1 µM, first compound 3 µM): 38.7% | viability, T/C (second compound 0.316 µM, first compound 0.00949 µM): 49% | viability, T/C (second compound 0.316 µM, first compound 0.03 µM): 33.9% | viability, T/C (second compound 0.316 µM, first compound 0.0949 µM): 55.8% | viability, T/C (second compound 0.316 µM, first compound 0.3 µM): 30.4% | viability, T/C (second compound 0.316 µM, first compound 0.949 µM): 59.7% | viability, T/C (second compound 0.316 µM, first compound 3 µM): 36.1% | viability, T/C (second compound 1 µM, first compound 0.00949 µM): 48.3% | viability, T/C (second compound 1 µM, first compound 0.03 µM): 47% | viability, T/C (second compound 1 µM, first compound 0.0949 µM): 38.7% | viability, T/C (second compound 1 µM, first compound 0.3 µM): 45.5% | viability, T/C (second compound 1 µM, first compound 0.949 µM): 29.2% | viability, T/C (second compound 1 µM, first compound 3 µM): 40% | viability, T/C (second compound 3.16 µM, first compound 0.00949 µM): 36.8% | viability, T/C (second compound 3.16 µM, first compound 0.03 µM): 34.1% | viability, T/C (second compound 3.16 µM, first compound 0.0949 µM): 34.4% | viability, T/C (second compound 3.16 µM, first compound 0.3 µM): 46.9% | viability, T/C (second compound 3.16 µM, first compound 0.949 µM): 37.9% | viability, T/C (second compound 3.16 µM, first compound 3 µM): 27.5% | viability, T/C (second compound 10 µM, first compound 0.00949 µM): 40.6% | viability, T/C (second compound 10 µM, first compound 0.03 µM): 64.6% | viability, T/C (second compound 10 µM, first compound 0.0949 µM): 52.8% | viability, T/C (second compound 10 µM, first compound 0.3 µM): 38.5% | viability, T/C (second compound 10 µM, first compound 0.949 µM): 40.5% | viability, T/C (second compound 10 µM, first compound 3 µM): 45.9%

From PubChem BioAssay AID1963434 (Molecular Pharmacology Branch, DTP, NCI, 2024)
